The source made the active and inactive calls. No cut-off for these calls is given here.
Key:
[1] = tested on: GBM; assay: Upregulation of HSPA8 gene expression in TMZ-resistant patient-derived human GBM cells by KEGG analysis; format: functional, cell-based
[2] = tested on: GBM; assay: Upregulation of HSP90AA1 gene expression in TMZ-resistant patient-derived human GBM cells by KEGG analysis; format: functional, cell-based
[3] = tested on: GBM; assay: Upregulation of HSPA4 gene expression in TMZ-resistant patient-derived human GBM cells by KEGG analysis; format: functional, cell-based
[4] = tested on: GBM; assay: Upregulation of HSPA1A gene expression in TMZ-resistant patient-derived human GBM cells by KEGG analysis; format: functional, cell-based
[5] = tested on: GBM; assay: Upregulation of HSPH gene expression in TMZ-resistant patient-derived human GBM cells by KEGG analysis; format: functional, cell-based
[6] = tested on: GBM; assay: Upregulation of ARF3 gene expression in TMZ-resistant patient-derived human GBM cells by KEGG analysis; format: functional, cell-based
[7] = tested on: GBM; assay: Upregulation of EHD1 gene expression in TMZ-resistant patient-derived human GBM cells by KEGG analysis; format: functional, cell-based
[8] = tested on: GBM; assay: Upregulation of SERPINE1 gene expression in TMZ-resistant patient-derived human GBM cells by KEGG analysis; format: functional, cell-based
[9] = tested on: GBM; assay: Upregulation of CTNNB1 gene expression in TMZ-resistant patient-derived human GBM cells by KEGG analysis; format: functional, cell-based
[10] = tested on: GBM; assay: Upregulation of ACTB gene expression in TMZ-resistant patient-derived human GBM cells by KEGG analysis; format: functional, cell-based
[11] = tested on: GBM; assay: Upregulation of ZYX gene expression in TMZ-resistant patient-derived human GBM cells by KEGG analysis; format: functional, cell-based
[12] = tested on: GBM; assay: Downregulation of RPS6 gene expression in TMZ-resistant patient-derived human GBM cells by KEGG analysis; format: functional, cell-based
[13] = tested on: GBM; assay: Downregulation of RPL35 gene expression in TMZ-resistant patient-derived human GBM cells by KEGG analysis; format: functional, cell-based
[14] = tested on: GBM; assay: Downregulation of RPL26 gene expression in TMZ-resistant patient-derived human GBM cells by KEGG analysis; format: functional, cell-based
[15] = tested on: GBM; assay: Downregulation of RPS10 gene expression in TMZ-resistant patient-derived human GBM cells by KEGG analysis; format: functional, cell-based
[16] = tested on: GBM; assay: Downregulation of MCM7 gene expression in TMZ-resistant patient-derived human GBM cells by KEGG analysis; format: functional, cell-based
[17] = tested on: GBM; assay: Downregulation of MCM3 gene expression in TMZ-resistant patient-derived human GBM cells by KEGG analysis; format: functional, cell-based
[18] = tested on: GBM; assay: Downregulation of YWHAG gene expression in TMZ-resistant patient-derived human GBM cells by KEGG analysis; format: functional, cell-based
[19] = tested on: GBM; assay: Downregulation of HNRNPA3 gene expression in TMZ-resistant patient-derived human GBM cells by KEGG analysis; format: functional, cell-based
[20] = tested on: GBM; assay: Downregulation of PCBP1 gene expression in TMZ-resistant patient-derived human GBM cells by KEGG analysis; format: functional, cell-based
[21] = tested on: GBM; assay: Downregulation of SRSF7 gene expression in TMZ-resistant patient-derived human GBM cells by KEGG analysis; format: functional, cell-based
[22] = tested on: GBM; assay: Inhibition of cell proliferation in TMZ-resistant patient-derived human GBM cells at 2 uM incubated for 48 hrs; format: functional, cell-based
[23] = tested on: GBM; assay: Suppression of cell division in TMZ-resistant patient-derived human GBM cells by GSEA analysis; format: functional, cell-based
[24] = tested on: GBM; assay: Suppression of DNA repair in TMZ-resistant patient-derived human GBM cells by GSEA analysis; format: functional, cell-based
[25] = tested on: GBM; assay: Upregulation of apoptosis-related gene expression in TMZ-resistant patient-derived human GBM cells; format: functional, cell-based
[26] = tested on: GBM; assay: Upregulation of necrosis-related gene expression in TMZ-resistant patient-derived human GBM cells; format: functional, cell-based
[27] = tested on: GBM; assay: Downregulation of M phase-related gene expression in TMZ-resistant patient-derived human GBM cells; format: functional, cell-based
[28] = tested on: GBM; assay: Downregulation of kinetochore-related gene expression in TMZ-resistant patient-derived human GBM cells; format: functional, cell-based
[29] = tested on: GBM; assay: Downregulation of spindle-related gene expression in TMZ-resistant patient-derived human GBM cells; format: functional, cell-based
[30] = tested on: GBM; assay: Downregulation of CDK1 level in TMZ-resistant patient-derived human GBM cells upto 5 uM incubated for 48 to 72 hrs by Western blot analysis; format: functional, cell-based; conditions: time 48-72 hrs
[31] = tested on: GBM; assay: Downregulation of cyclin B level in TMZ-resistant patient-derived human GBM cells upto 5 uM incubated for 48 to 72 hrs by Western blot analysis; format: functional, cell-based; conditions: time 48-72 hrs
[32] = tested on: GBM; assay: Downregulation of CENPF level in TMZ-resistant patient-derived human GBM cells upto 5 uM incubated for 48 to 72 hrs by Western blot analysis; format: functional, cell-based; conditions: time 48-72 hrs
[33] = tested on: GBM; assay: Downregulation of CENPE level in TMZ-resistant patient-derived human GBM cells upto 5 uM incubated for 48 to 72 hrs by Western blot analysis; format: functional, cell-based; conditions: time 48-72 hrs
[34] = tested on: GBM; assay: Downregulation of CENPA level in TMZ-resistant patient-derived human GBM cells upto 5 uM incubated for 48 to 72 hrs by Western blot analysis; format: functional, cell-based; conditions: time 48-72 hrs
[35] = tested on: GBM; assay: Downregulation of CENPI level in TMZ-resistant patient-derived human GBM cells upto 5 uM incubated for 48 to 72 hrs by Western blot analysis; format: functional, cell-based; conditions: time 48-72 hrs
[36] = tested on: GBM; assay: Induction of cell cycle arrest in TMZ-resistant patient-derived human GBM cells at 1 uM incubated for 24 to 72 hrs by PI staining based flow cytometry; format: functional; conditions: time 24-72 hrs
[37] = Downregulation of CENPF level in TMZ-resistant patient-derived human GBM cells assessed as fold change at 2 uM by GlioVis analysis (reference value: 6.6); format: functional
[38] = Downregulation of NASP level in TMZ-resistant patient-derived human GBM cells assessed as fold change at 2 uM by GlioVis analysis (reference value: 5.08); format: functional
[39] = Downregulation of CENPP level in TMZ-resistant patient-derived human GBM cells assessed as fold change at 2 uM by GlioVis analysis (reference value: 2.18); format: functional

With `CCN(c1cc(-c2cccc(N(C)C(=O)c3cc(C(C)C)c(O)cc3O)c2)cc(C(=O)NCc2c(C)cc(C)[nH]c2=O)c1C)C1CCOCC1` the Activity [1] was “Active”, the Activity [2] was “Active” and the Activity [3] was “Active”. The Activity [4] was “Active”, the Activity [5] was “Active” and the Activity [6] was “Active”. The Activity [7] was “Active”, the Activity [8] was “Active” and the Activity [9] was “Active”. For the same molecule, the Activity [10] was “Active”, the Activity [11] was “Active” and the Activity [12] was “Active”. For the same molecule, the Activity [13] was “Active”, the Activity [14] was “Active” and the Activity [15] was “Active”. For the same molecule, the Activity [16] was “Active”, the Activity [17] was “Active” and the Activity [18] was “Active”. The Activity [19] was “Active”, the Activity [20] was “Active” and the Activity [21] was “Active”. For the same molecule, the inhibition [22] was “Active”, the Activity [23] was “Active” and the Activity [24] was “Active”. For the same molecule, the Activity [25] was “Active”, the Activity [26] was “Active” and the Activity [27] was “Active”. For the same molecule, the Activity [28] was “Active”, the Activity [29] was “Active” and the Activity [30] was “Active”. The Activity [31] was “Active”, the Activity [32] was “Active” and the Activity [33] was “Active”. The Activity [34] was “Active”, the Activity [35] was “Active” and the Activity [36] was “Active”. For the same molecule, the “fold change (FC)” value [37] was 3.46, the “fold change (FC)” value [38] was 3.41 and the “fold change (FC)” value [39] was 1.27.

Source: ChEMBL document CHEMBL5385913, “First-in-Class Dual EZH2-HSP90 Inhibitor Eliciting Striking Antiglioblastoma Activity In Vitro and In Vivo” (J Med Chem, 2024)
